According to patent publication US12077503B2, “Substituted cyclic amides and their use as herbicides” (FMC CORPORATION, priority 2015, dated 2024):

Columns and labels:
Format in all cases: in vivo
[1] = system: ragweed (common ragweed, Ambrosia elatior); assay: Test A preemergence; conditions: Ambrosia artemisiifolia, pre-emergence, 240 h
How it was run: (§1)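 In a loam soil and sand blend, planted seeds got a preemergence directed soil spray, and young plants at the one- to two-leaf stage, 2–10 cm high, got a postemergence application; ~10 d greenhouse hold; injury rated visually, 0 = none, 100 = complete control.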

[2] = system: pigweed (Amaranthus retroflexus); assay: Test A preemergence; conditions: Amaranthus retroflexus, pre-emergence, 240 h
Kochia (Kochia scoparia) [3] = assay: Test A preemergence; conditions: Bassia scoparia, pre-emergence, 240 h
How it was run: as §1

[4] = system: barnyardgrass (Echinochloa crus-galli); assay: Test A preemergence; conditions: Echinochloa crus-galli, pre-emergence, 240 h
How it was run: as §1

[5] = system: giant foxtail (Setaria faberii); assay: Test A preemergence; conditions: Setaria faberi, pre-emergence, 240 h
How it was run: as §1

[6] = system: ryegrass, Italian (Italian ryegrass, Lolium multiflorum); assay: Test A preemergence; conditions: Lolium multiflorum, pre-emergence, 240 h
How it was run: as §1

[7] = system: ducksalad (Heteranthera limosa); assay: Test B flooded paddy test; conditions: Heteranthera limosa, Flood, 250 g ai/ha; scale of 0 to 100 where 0 is no effect and 100 is complete control; read-out: Ducksalad plant response rating
How it was run: (§2)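 Flooding to 3 cm over soil accompanied treatment, which consisted of adding compound to the standing water around 2-leaf plants; depth was then maintained. Visual assessment versus controls followed at 13 to 15 d (scale 0–100, 0 meaning no effect).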

[8] = system: barnyardgrass (Echinochloa crus-galli); assay: Test B flooded paddy test; conditions: Echinochloa crus-galli, Flood, 250 g ai/ha; scale of 0 to 100 where 0 is no effect and 100 is complete control; read-out: Barnyardgrass plant response rating
How it was run: as §2

[9] = system: sedge, umbrella (small-flower umbrella sedge, Cyperus difformis); assay: Test B flooded paddy test; conditions: Cyperus difformis, Flood, 250 g ai/ha; scale of 0 to 100 where 0 is no effect and 100 is complete control; read-out: Sedge, Umbrella plant response rating
How it was run: as §2

rice (Oryra sativa) = assay: Test B flooded paddy test; conditions: Oryza sativa, Flood, 250 g ai/ha; scale of 0 to 100 where 0 is no effect and 100 is complete control; read-out: Rice plant response rating
How it was run: as §2

[10] = system: ragweed (common ragweed, Ambrosia elatior); assay: Test A postemergence; conditions: Ambrosia artemisiifolia, post-emergence, 240 h, 125 g ai/ha, Postemergence; visual injury after approximately 10 d; 0 to 100 scale where 0 is no effect and 100 is complete control; read-out: Plant response rating, Ragweed
How it was run: as §1

[11] = system: pigweed (Amaranthus retroflexus); assay: Test A postemergence; conditions: Amaranthus retroflexus, post-emergence, 240 h, 125 g ai/ha, Postemergence; visual injury after approximately 10 d; 0 to 100 scale where 0 is no effect and 100 is complete control; read-out: Plant response rating, Pigweed
How it was run: as §1

Kochia (Kochia scoparia) [12] = assay: Test A postemergence; conditions: Bassia scoparia, post-emergence, 240 h, 125 g ai/ha, Postemergence; visual injury after approximately 10 d; 0 to 100 scale where 0 is no effect and 100 is complete control; read-out: Plant response rating, Kochia
How it was run: as §1

corn (Zea mays) = assay: Test A postemergence; conditions: Zea mays, post-emergence, 240 h, 125 g ai/ha, Postemergence; visual injury after approximately 10 d; 0 to 100 scale where 0 is no effect and 100 is complete control
How it was run: as §1

[13] = system: barnyardgrass (Echinochloa crus-galli); assay: Test A postemergence; conditions: Echinochloa crus-galli, post-emergence, 240 h, 125 g ai/ha, Postemergence; visual injury after approximately 10 d; 0 to 100 scale where 0 is no effect and 100 is complete control; read-out: Plant response rating, Barnyardgrass
How it was run: as §1

[14] = system: blackgrass (Alopecurus myosuroides); assay: Test A postemergence; conditions: Alopecurus myosuroides, post-emergence, 240 h, 125 g ai/ha, Postemergence; visual injury after approximately 10 d; 0 to 100 scale where 0 is no effect and 100 is complete control; read-out: Plant response rating, Blackgrass
How it was run: as §1

[15] = system: giant foxtail (Setaria faberii); assay: Test A postemergence; conditions: Setaria faberi, post-emergence, 240 h, 125 g ai/ha, Postemergence; visual injury after approximately 10 d; 0 to 100 scale where 0 is no effect and 100 is complete control; read-out: Plant response rating, Foxtail, Giant
How it was run: as §1

[16] = system: Galium (catchweed bedstraw, Galium aparine); assay: Test A postemergence; conditions: Galium, post-emergence, 240 h, 125 g ai/ha, Postemergence; visual injury after approximately 10 d; 0 to 100 scale where 0 is no effect and 100 is complete control; read-out: Plant response rating, Galium
How it was run: as §1

[17] = system: ryegrass, Italian (Italian ryegrass, Lolium multiflorum); assay: Test A postemergence; conditions: Lolium multiflorum, post-emergence, 240 h, 125 g ai/ha, Postemergence; visual injury after approximately 10 d; 0 to 100 scale where 0 is no effect and 100 is complete control; read-out: Plant response rating, Ryegrass, Italian
How it was run: as §1

[18] = system: wheat (Triticum aestivum); assay: Test A postemergence; conditions: Triticum aestivum, post-emergence, 240 h, 125 g ai/ha, Postemergence; visual injury after approximately 10 d; 0 to 100 scale where 0 is no effect and 100 is complete control; read-out: Plant response rating, Wheat
How it was run: as §1

CC(C)COc1cccc([C@H]2CNC(=O)[C@@H]2C(=O)Nc2ccccc2F)c1 [Compound 964]
75%: pest or weed control at 250 g/ha [7]
40%: pest or weed control at 125 g/ha [16]
15%: pest or weed control at 250 g/ha (rice (Oryra sativa))
90%: pest or weed control at 125 g/ha ([4]; 125 g ai/ha, Preemergence, visual injury rating after approximately 10 d, read-out: Barnyardgrass plant response rating (0 to 100 scale, 0 is no effect, 100 is complete control)) | pest or weed control at 500 g/ha ([4]; 500 g ai/ha, preemergence, visual injury rating about 10 d after treatment, 0 to 100 scale (0 no effect, 100 complete control), read-out: Barnyardgrass plant response rating) | pest or weed control at 125 g/ha ([5]; 125 g ai/ha, Preemergence, visual injury rating after approximately 10 d, read-out: Foxtail, Giant plant response rating (0 to 100 scale, 0 is no effect, 100 is complete control)) | pest or weed control at 500 g/ha ([5]; 500 g ai/ha, preemergence, visual injury rating about 10 d after treatment, 0 to 100 scale (0 no effect, 100 complete control), read-out: Foxtail, Giant plant response rating)
60%: pest or weed control at 125 g/ha [13] | pest or weed control at 125 g/ha [15]
20%: pest or weed control at 500 g/ha (Kochia (Kochia scoparia) [3]; 500 g ai/ha, preemergence, visual injury rating about 10 d after treatment, 0 to 100 scale (0 no effect, 100 complete control), read-out: Kochia plant response rating)
30%: pest or weed control at 500 g/ha ([6]; 500 g ai/ha, preemergence, visual injury rating about 10 d after treatment, 0 to 100 scale (0 no effect, 100 complete control), read-out: Ryegrass, Italian plant response rating)
0%: pest or weed control at 125 g/ha ([1]; 125 g ai/ha, Preemergence, visual injury rating after approximately 10 d, read-out: Ragweed plant response rating (0 to 100 scale, 0 is no effect, 100 is complete control)) | pest or weed control at 500 g/ha ([1]; 500 g ai/ha, preemergence, visual injury rating about 10 d after treatment, 0 to 100 scale (0 no effect, 100 complete control), read-out: Ragweed plant response rating) | pest or weed control at 125 g/ha ([2]; 125 g ai/ha, Preemergence, visual injury rating after approximately 10 d, read-out: Pigweed plant response rating (0 to 100 scale, 0 is no effect, 100 is complete control)) | pest or weed control at 500 g/ha ([2]; 500 g ai/ha, preemergence, visual injury rating about 10 d after treatment, 0 to 100 scale (0 no effect, 100 complete control), read-out: Pigweed plant response rating) | pest or weed control at 125 g/ha (Kochia (Kochia scoparia) [3]; 125 g ai/ha, Preemergence, visual injury rating after approximately 10 d, read-out: Kochia plant response rating (0 to 100 scale, 0 is no effect, 100 is complete control)) | pest or weed control at 125 g/ha ([6]; 125 g ai/ha, Preemergence, visual injury rating after approximately 10 d, read-out: Ryegrass, Italian plant response rating (0 to 100 scale, 0 is no effect, 100 is complete control)) | pest or weed control at 250 g/ha [8] | pest or weed control at 250 g/ha [9] | pest or weed control at 125 g/ha [10] | pest or weed control at 125 g/ha [11] | pest or weed control at 125 g/ha (Kochia (Kochia scoparia) [12]) | Corn plant response rating (crop injury, 0 = no effect, 100 = complete kill) at 125 g/ha (corn (Zea mays)) | pest or weed control at 125 g/ha [14] | pest or weed control at 125 g/ha [17] | plant injury at 125 g/ha [18]
